Where only a bound is given, the exact number is not on record here.

The target of assay [1] is recombinant SARS-CoV-2 Main protease (Mpro) (Severe acute respiratory syndrome coronavirus 2 (2019-nCoV) (SARS-CoV-2), UniProt P0DTD1). Briefly: Cov Mpro Biochemical IC50 Assay. The note with it: recombinant SARS-CoV-2 Mpro 7.5 nM, fluorogenic peptide substrate 40 μM; read-out: MPro IC50.
Another assay concerns SARS-CoV-2-NLuc. As to the kind of experiment: microbe, parasite or virus in culture. The assay is classed as cell-based, SARS Coronavirus 2. Conditions: read-out: MPro EC50.

As to `Cn1nnc2cncc(-n3c(=O)c4sc(-c5ccc(F)cc5Cl)cc4n(CCC#N)c3=O)c21` (single isomer, unassigned) [Example 1028, 3-[6-(2-chloro-4-fluoro-phenyl)-3-(1-methyltriazolo[4,5-c]pyridin-7-yl)-2,4-dioxo-thieno[3,2-d]pyrimidin-1-yl]propanenitrile], the IC50 in assay [1] was 17.9 nM. The EC50 in the assay on SARS-CoV-2-NLuc came out at 51 nM.

Consider `Cn1nnc2cncc(-n3c(=O)c4sc(-c5ccc(F)cc5Cl)cc4n(CCC#N)c3=O)c21` (single isomer, unassigned) [Example 1029, 3-[6-(2-chloro-4-fluoro-phenyl)-3-(1-methyltriazolo[4,5-c]pyridin-7-yl)-2,4-dioxo-thieno[3,2-d]pyrimidin-1-yl]propanenitrile], for which the IC50 in assay [1] was 582 nM. The EC50 in the assay on SARS-CoV-2-NLuc is greater than 1000 nM.

In the case of `COc1cc(-c2cc3c(s2)c(=O)n(-c2cnccc2C)c(=O)n3CCC#N)c(Cl)cc1F` (single isomer, unassigned) [Example 1030, 3-[6-(2-chloro-4-fluoro-5-methoxy-phenyl)-3-(4-methyl-3-pyridyl)-2,4-dioxo-thieno[3,2-d]pyrimidin-1-yl]propanenitrile], the IC50 in assay [1] stood at 4.5 nM. Moreover, the EC50 in the assay on SARS-CoV-2-NLuc turned out to be 9.72 nM.

`COc1cc(-c2cc3c(s2)c(=O)n(-c2cnccc2C)c(=O)n3CCC#N)c(Cl)cc1F` (single isomer, unassigned) [Example 1031, 3-[6-(2-chloro-4-fluoro-5-methoxy-phenyl)-3-(4-methyl-3-pyridyl)-2,4-dioxo-thieno[3,2-d]pyrimidin-1-yl]propanenitrile]: the IC50 in assay [1] amounted to 45.6 nM. Besides, the EC50 in the assay with SARS-CoV-2-NLuc was found to be 75.3 nM.

For `COc1cc(-c2cc3c(s2)c(=O)n(-c2cncc(Cl)c2C)c(=O)n3CCC#N)c(Cl)cc1F` (single isomer, unassigned) [Example 1032, 3-[6-(2-chloro-4-fluoro-5-methoxy-phenyl)-3-(5-chloro-4-methyl-3-pyridyl)-2,4-dioxo-thieno[3,2-d]pyrimidin-1-yl]propanenitrile], the IC50 in assay [1] came out at 1.99 nM. Further, the EC50 in the assay with SARS-CoV-2-NLuc worked out at 2.02 nM.

Consider `COc1cc(-c2cc3c(s2)c(=O)n(-c2cncc(Cl)c2C)c(=O)n3CCC#N)c(Cl)cc1F` (single isomer, unassigned) [Example 1033, 3-[6-(2-chloro-4-fluoro-5-methoxy-phenyl)-3-(5-chloro-4-methyl-3-pyridyl)-2,4-dioxo-thieno[3,2-d]pyrimidin-1-yl]propanenitrile], for which the IC50 in assay [1] is 420 nM. Also, the EC50 in the assay with SARS-CoV-2-NLuc was found to be 488 nM.

With `COc1cc(-c2cc3[nH]c(=O)n(-c4cncc5ccc(C)nc45)c(=O)c3s2)c(Cl)cc1F` (single isomer, unassigned) [Example 1034, 6-(2-chloro-4-fluoro-5-methoxyphenyl)-3-(2-methyl-1,6-naphthyridin-8-yl)thieno[3,2-d]pyrimidine-2,4(1H,3H)-dione], the IC50 in assay [1] is 3.13 nM. Also, the EC50 with SARS-CoV-2-NLuc was found to be 3.04 nM.

Consider `COc1cc(-c2cc3[nH]c(=O)n(-c4cncc5ccc(C)nc45)c(=O)c3s2)c(Cl)cc1F` (single isomer, unassigned) [Example 1035, 6-(2-chloro-4-fluoro-5-methoxyphenyl)-3-(2-methyl-1,6-naphthyridin-8-yl)thieno[3,2-d]pyrimidine-2,4(1H,3H)-dione], for which, in assay [1], the IC50 turned out to be 26.3 nM. The EC50 in the assay on SARS-CoV-2-NLuc is 24.4 nM.

For `COc1cc(-c2cc3c(s2)c(=O)n(-c2cncc4cccnc24)c(=O)n3CCC#N)c(Cl)cc1F` (single isomer, unassigned) [Example 1036, 3-(6-(2-chloro-4-fluoro-5-methoxyphenyl)-3-(1,6-naphthyridin-8-yl)-2,4-dioxo-3,4-dihydrothieno[3,2-d]pyrimidin-1(2H)-yl)propanenitrile], the IC50 in assay [1] turned out to be 1.42 nM. In the assay on SARS-CoV-2-NLuc, the EC50 was 0.66 nM.

Turning to `COc1cc(-c2cc3c(s2)c(=O)n(-c2cncc4cccnc24)c(=O)n3CCC#N)c(Cl)cc1F` (single isomer, unassigned) [Example 1037, 3-(6-(2-chloro-4-fluoro-5-methoxyphenyl)-3-(1,6-naphthyridin-8-yl)-2,4-dioxo-3,4-dihydrothieno[3,2-d]pyrimidin-1(2H)-yl)propanenitrile], the IC50 in assay [1] stood at 544 nM. Further, the EC50 in the assay with SARS-CoV-2-NLuc was 362 nM.

As for `COc1cc(-c2cc3c(s2)c(=O)n(-c2cncc4nn(C)c(C)c24)c(=O)n3CCC#N)c(Cl)cc1F` (single isomer, unassigned) [Example 1041, 3-(6-(2-chloro-4-fluoro-5-methoxyphenyl)-3-(2,3-dimethyl-2H-pyrazolo[3,4-c]pyridin-4-yl)-2,4-dioxo-3,4-dihydrothieno[3,2-d]pyrimidin-1(2H)-yl)propanenitrile], the IC50 in assay [1] turned out to be 2.99 nM. The EC50 in the assay on SARS-CoV-2-NLuc came out at 5.72 nM.

With `COc1cc(-c2cc3c(s2)c(=O)n(-c2cncc4nn(C)c(C)c24)c(=O)n3CCC#N)c(Cl)cc1F` (single isomer, unassigned) [Example 1042, 3-(6-(2-chloro-4-fluoro-5-methoxyphenyl)-3-(2,3-dimethyl-2H-pyrazolo[3,4-c]pyridin-4-yl)-2,4-dioxo-3,4-dihydrothieno[3,2-d]pyrimidin-1(2H)-yl)propanenitrile], in assay [1], the IC50 was greater than 1000 nM. Further, the EC50 with SARS-CoV-2-NLuc was greater than 1000 nM.

Turning to `COc1cc(-c2cc3c(s2)c(=O)n(-c2cncc4c2c(C)nn4C)c(=O)n3CCC#N)c(Cl)cc1F` (single isomer, unassigned) [Example 1043, 3-(6-(2-chloro-4-fluoro-5-methoxyphenyl)-3-(1,3-dimethyl-1H-pyrazolo[3,4-c]pyridin-4-yl)-2,4-dioxo-3,4-dihydrothieno[3,2-d]pyrimidin-1(2H)-yl)propanenitrile], in assay [1], the IC50 is greater than 1000 nM. The EC50 with SARS-CoV-2-NLuc was greater than 1000 nM.

For `COc1cc(-c2cc3c(s2)c(=O)n(-c2cncc4c2c(C)nn4C)c(=O)n3CCC#N)c(Cl)cc1F` (single isomer, unassigned) [Example 1044, 3-(6-(2-chloro-4-fluoro-5-methoxyphenyl)-3-(1,3-dimethyl-1H-pyrazolo[3,4-c]pyridin-4-yl)-2,4-dioxo-3,4-dihydrothieno[3,2-d]pyrimidin-1(2H)-yl)propanenitrile], the IC50 in assay [1] stood at 3.55 nM. Moreover, the EC50 with SARS-CoV-2-NLuc was found to be 3.21 nM.

As for `COc1ccc(Cl)c(-c2cc3[nH]c(=O)n(-c4cncc5scc(C)c45)c(=O)c3s2)c1` (single isomer, unassigned) [Example 1052, 6-(2-chloro-5-methoxyphenyl)-3-(3-methylthieno[2,3-c]pyridin-4-yl)thieno[3,2-d]pyrimidine-2,4(1H,3H)-dione], the IC50 in assay [1] is 3.67 nM. For the same compound, the EC50 with SARS-CoV-2-NLuc is 2.66 nM.

Consider `COc1ccc(Cl)c(-c2cc3[nH]c(=O)n(-c4cncc5scc(C)c45)c(=O)c3s2)c1` (single isomer, unassigned) [Example 1053, 6-(2-chloro-5-methoxyphenyl)-3-(3-methylthieno[2,3-c]pyridin-4-yl)thieno[3,2-d]pyrimidine-2,4(1H,3H)-dione], for which the IC50 in assay [1] was 83.3 nM. In the assay on SARS-CoV-2-NLuc, the EC50 is 48.5 nM.

For the compound `COc1cc(-c2cc3[nH]c(=O)n(-c4cncc5ccccc45)c(=O)c3cc2OC)c(Cl)cc1F` (single isomer, unassigned) [Example 1054, 7-(2-chloro-4-fluoro-5-methoxyphenyl)-3-(isoquinolin-4-yl)-6-methoxyquinazoline-2,4(1H,3H)-dione], in assay [1], the IC50 stood at 34.6 nM. In addition, in the assay on SARS-CoV-2-NLuc, the EC50 was 15.5 nM.

For `COc1cc(-c2cc3[nH]c(=O)n(-c4cncc5ccccc45)c(=O)c3cc2OC)c(Cl)cc1F` (single isomer, unassigned) [Example 1055, 7-(2-chloro-4-fluoro-5-methoxyphenyl)-3-(isoquinolin-4-yl)-6-methoxyquinazoline-2,4(1H,3H)-dione], the IC50 in assay [1] worked out at 459 nM. Also, the EC50 in the assay on SARS-CoV-2-NLuc is 460 nM.

Take `COc1cc(-c2cc3[nH]c(=O)n(-c4cncc5scc(C)c45)c(=O)c3s2)c(Cl)cc1F` (single isomer, unassigned) [Example 1056, 6-(2-chloro-4-fluoro-5-methoxyphenyl)-3-(3-methylthieno[2,3-c]pyridin-4-yl)thieno[3,2-d]pyrimidine-2,4(1H,3H)-dione]: the IC50 in assay [1] stood at 2.34 nM. For the same compound, in the assay on SARS-CoV-2-NLuc, the EC50 was less than 1.01 nM.

In the case of `COc1cc(-c2cc3[nH]c(=O)n(-c4cncc5scc(C)c45)c(=O)c3s2)c(Cl)cc1F` (single isomer, unassigned) [Example 1057, 6-(2-chloro-4-fluoro-5-methoxyphenyl)-3-(3-methylthieno[2,3-c]pyridin-4-yl)thieno[3,2-d]pyrimidine-2,4(1H,3H)-dione], in assay [1], the IC50 was determined as 145 nM. Also, in the assay on SARS-CoV-2-NLuc, the EC50 was found to be 52.6 nM.

For `COc1cc(-c2cc3c(s2)c(=O)n(-c2cncc4nnn(C)c24)c(=O)n3CCC#N)c(Cl)cc1F` (single isomer, unassigned) [Example 1058, 3-(6-(2-chloro-4-fluoro-5-methoxyphenyl)-3-(1-methyl-1H-[1,2,3]triazolo[4,5-c]pyridin-7-yl)-2,4-dioxo-3,4-dihydrothieno[3,2-d]pyrimidin-1(2H)-yl)propanenitrile], the 50% inhibitory concentration (IC50) in assay [1] turned out to be 2.86 nM. The EC50 in the assay on SARS-CoV-2-NLuc amounted to 5.15 nM.

On to `COc1cc(-c2cc3c(s2)c(=O)n(-c2cncc4nnn(C)c24)c(=O)n3CCC#N)c(Cl)cc1F` (single isomer, unassigned) [Example 1059, 3-(6-(2-chloro-4-fluoro-5-methoxyphenyl)-3-(1-methyl-1H-[1,2,3]triazolo[4,5-c]pyridin-7-yl)-2,4-dioxo-3,4-dihydrothieno[3,2-d]pyrimidin-1(2H)-yl)propanenitrile], for which, in assay [1], the IC50 stood at 44.7 nM. In addition, in the assay with SARS-CoV-2-NLuc, the EC50 worked out at 101 nM.

Turning to `Cn1ncc2cncc(-n3c(=O)c4sc(-c5cc(F)c(F)cc5Cl)cc4n(CCC#N)c3=O)c21` (single isomer, unassigned) [Example 1076, 3-[6-(2-chloro-4,5-difluoro-phenyl)-3-(1-methylpyrazolo[4,3-c]pyridin-7-yl)-2,4-dioxo-thieno[3,2-d]pyrimidin-1-yl]propanenitrile], the IC50 in assay [1] turned out to be 3.64 nM. In the assay with SARS-CoV-2-NLuc, the EC50 amounted to 10.9 nM.

A word on the IC50: it is the concentration that gives 50% inhibition. Usually EC50 stands for the concentration needed to bring the measured effect to its halfway point.
